{"source": "patent US20230338307A1", "about": "“PROPHYLACTIC AGENT, AMELIORATING AGENT, AND THERAPEUTIC AGENT FOR DRY EYE” (TSUBOTA LABORATORY, INC., priority 2020, published 2023)", "key": {"[1]": {"tested_on": "dry eye model", "experiment": "Schirmer test (tear volume), 0.2% benzalkonium chloride dry eye model, Comparative Study 2 (Example 5)", "assay_type": "in vivo, mice", "conditions": "2 days after start, compared to hyaluronic acid and diquafosol sodium groups, FIG. 10", "description": "After acclimating male C57BL6 mice (7 weeks old) to the experimental environment, those with almost uniform weight values and no eye abnormalities were divided into the following groups (n=3 to 4). • 7 weeks old/normal (non-dry eye group) • 7 weeks old/dry eye model+control (solvent eye drop) group • 7 weeks old/dry eye model+0.003% (w/v) apocynin eye drop group • 7 weeks old/dry eye model+0.03% (w/v) apocynin eye drop group • 7 weeks old/dry eye model+3% diquafosol sodium eye drop group • 7 weeks old/dry eye model+0.5% (w/v) hyaluronic acid eye drop group A dry eye model was created by instilling 3 μL of the 0.2% benzalkonium chloride solution into each of both eyes twice a day for 8 days. Then, the control group received PBS alone, and the test group received 0.003% (w/v), 0.03% (w/v) apocynin and 0.5% (w/v) hyaluronic acid in PBS. The 3% diquafosol sodium eye drop was instilled into each of both eyes at 3 μL, twice a day for 9 days. Two days after the start of instillation of the comparative test drug, the Schirmer test was performed to evaluate the tear volume."}, "[2]": {"tested_on": "meibomian glands", "experiment": "Meibomian gland silhouette and area, dry eye model by systemic erlotinib (Example 3)", "assay_type": "in vivo, mice", "conditions": "0.003% (w/v) apocynin eye drop, 2 weeks after start of instillation", "method": "After acclimating male C57BL6 mice (7 weeks old) to the experimental environment, those with almost uniform body weight values and no eye abnormalities were divided into the following 3 groups (n=4). • 7 weeks old/normal (non-dry eye group) • 7 weeks old/dry eye model+control (solvent eye drop) group • 7 weeks old/dry eye model+apocynin eye drop group The dry eye model was prepared by dissolving erlotinib at a concentration of 5 mg/ml in 0.5% methylcellulose solution and administering it by intraperitoneal injection at a concentration of 50 mg/kg/day daily from the start of the study. The solvent 0.5% methylcellulose solution was similarly administered to the normal non-administration group. After one week of administration of erlotinib, the control group received PBS alone, and the test group received a solution of 0.003% (w/v) apocynin suspended in PBS twice a day at both eyes with 3 μL each. One week after the start of instillation, 1 μL of 0.1% sodium fluorescein solution was instilled into each of both eyes under isoflurane anesthesia, and the BUT test was performed under a blue filter using a slit lamp (Kowa Co., Ltd., SL-17) (FIG. 5). […] In addition, the image analysis software ImageJ was used to quantify the area of the meibomian gland silhouette image of the upper eyelid image (FIG. 7)."}, "[3]": {"tested_on": "dry eye model", "experiment": "Fluorescein staining score (corneal damage), dry eye model by systemic erlotinib (Example 3)", "assay_type": "in vivo, mice", "conditions": "0.003% (w/v) apocynin eye drop twice a day, one week after start, FIG. 6", "method": "(§1) After acclimating male C57BL6 mice (7 weeks old) to the experimental environment, those with almost uniform body weight values and no eye abnormalities were divided into the following 3 groups (n=4). • 7 weeks old/normal (non-dry eye group) • 7 weeks old/dry eye model+control (solvent eye drop) group • 7 weeks old/dry eye model+apocynin eye drop group The dry eye model was prepared by dissolving erlotinib at a concentration of 5 mg/ml in 0.5% methylcellulose solution and administering it by intraperitoneal injection at a concentration of 50 mg/kg/day daily from the start of the study. The solvent 0.5% methylcellulose solution was similarly administered to the normal non-administration group. After one week of administration of erlotinib, the control group received PBS alone, and the test group received a solution of 0.003% (w/v) apocynin suspended in PBS twice a day at both eyes with 3 μL each. One week after the start of instillation, 1 μL of 0.1% sodium fluorescein solution was instilled into each of both eyes under isoflurane anesthesia, and the BUT test was performed under a blue filter using a slit lamp (Kowa Co., Ltd., SL-17) (FIG. 5). In Example 3, one week after the start of apocynin instillation, photographs were taken under isoflurane anesthesia, and the degree of corneal damage was scored (FIG. 6)."}, "[4]": {"tested_on": "dry eye model", "experiment": "Tear film breakup time (BUT) test, dry eye model by erlotinib instillation (Example 1)", "assay_type": "in vivo", "conditions": "0.003% (w/v) apocynin in PBS, 3 μL twice daily, two weeks after start of instillation; erlotinib-instilled C57BL6 mice; FIG. 1", "description": "(§2) After acclimating male C57BL6 mice (7 weeks old) to the experimental environment, those with almost uniform body weight values and no eye abnormalities were divided into the following 3 groups (n=5). • 7 weeks old/normal (non-dry eye group) • 7 weeks old/dry eye model+control (solvent eye drop) group • 7 weeks old/dry eye model+apocynin eye drop group The dry eye model was created by daily instillation of an EGF receptor inhibitor (erlotinib) based on the method of Yang et al. In this model, administration of erlotinib causes dry eye symptoms such as shortened BUT, decreased tear volume, and corneal damage after 1 week of administration (Non-patent Document 3). After 20 μM of erlotinib was instilled for 2 weeks, the control group received PBS alone, and the test group received 3 μL of a suspension of 0.003% (w/v) apocynin in PBS twice daily. Two weeks after the start of instillation, 1 μL of 0.1% sodium fluorescein solution was instilled into each of both eyes under isoflurane anesthesia, and a BUT test was performed using a slit lamp (Kowa Co., Ltd., SL-17) (FIG. 1). […] Under anesthesia, the tip of a Schirmer test paper cut to 1 mm width was inserted into the conjunctival sac of the lower eyelid of the mouse, the test paper was removed after 5 minutes, the length of the wetted part was read in units of 0.5 mm, and the value was used as the tear volume (FIG. 2)."}, "[5]": {"tested_on": "dry eye model", "experiment": "Tear film breakup time (BUT) test, dry eye model by systemic (intraperitoneal) erlotinib (Example 3)", "assay_type": "in vivo, mice", "conditions": "0.003% (w/v) apocynin in PBS, 3 μL twice a day, one week after start; erlotinib 50 mg/kg/day i.p. model; FIG. 5", "method": "as §1, with “5).” for “5). In Example 3, one week after the start of apocynin instillation, photographs were taken under isoflurane anesthesia, and the degree of corneal damage was scored (FIG. 6).”"}, "[6]": {"tested_on": "dry eye model", "experiment": "Schirmer test (tear volume), dry eye model by erlotinib instillation (Example 1)", "assay_type": "in vivo", "conditions": "0.003% (w/v) apocynin in PBS, 3 μL twice daily, two weeks after start of instillation; erlotinib-instilled C57BL6 mice; FIG. 2", "description": "as §2"}}}
{"smiles": "COc1cc(C(C)=O)ccc1O", "note": "[apocynin, 4-hydroxy-3-methoxyacetophenone]", "values": [{"measurement": "tear volume (Schirmer test)", "setting": "[1]; 0.003% apocynin eye drop", "result": "significantly improved"}, {"measurement": "tear volume (Schirmer test)", "setting": "[1]; 0.03% apocynin eye drop", "result": "significantly improved"}, {"measurement": "missing parts of meibomian glands (silhouette image of upper eyelid)", "setting": "[2]; FIG. 7A", "result": "reduced the missing parts"}, {"measurement": "meibomian gland silhouette area (atrophy of the meibomian glands)", "setting": "[2]; ImageJ, FIG. 7B", "result": "significantly inhibits atrophy of the meibomian glands"}, {"measurement": "corneal epithelial damage (fluorescein staining score)", "setting": "[3]", "result": "significantly improved"}, {"measurement": "tear film breakup time (BUT)", "setting": "[4]", "result": "improved the shortening of BUT"}, {"measurement": "tear film breakup time (BUT)", "setting": "[5]", "result": "significantly improved"}, {"measurement": "tear volume (Schirmer test)", "setting": "[6]", "result": "improved"}]}
